# Columns and labels:
# [1] = system: ethanol hydrochloride ulceration; details: against an ethanol hydrochloride ulceration; cited from earlier work
# [2] = system: Helicobacter pylori ATCC 43629; experiment: MIC, agar plating dilution (standard method of Japanese Chemotherapy Academy); format: cell-based; details: Objected Strain 2: Helicobacter pylori ATCC 43629
# Outline: (§1)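 Agar dilution MIC followed the Japanese Chemotherapy Academy standard method, on Brain Heart Infusion agar with 0.1% cyclodextrin and compounds dissolved in DMSO. Plates were incubated microaerobically at 37 °C for three days.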
# [3] = system: Helicobacter pylori ATCC 43504; experiment: as above; format: cell-based; details: Objected Strain 1: Helicobacter pylori ATCC 43504
# Outline: as §1
# [4] = system: Escherichia coli NIH JC-2; experiment: MIC, standard method of Japanese Chemotherapy Academy; format: cell-based; details: Objected Strain 3: Escherichia coli NIH JC-2
# Description: (§2) 1. Minimum Inhibitory Concentration (MIC) was measured in accordance with the standard method of Japanese Chemotherapy Academy (Chemotherapy, 29: 76-79, 1981).
# [5] = system: Staphylococcus aureus ATCC 6538; experiment: as above; format: cell-based; details: Strain 12: Staphylococcus aureus ATCC 6538
# Description: as §2
# (§3) And MIC of the compounds of Example 3, 36, 8, 14, 17, 21, 41 and 45 were measured.
# [6] = system: Bacillus subtilis ATCC 6633; experiment: as above; format: cell-based
# Description: as §2, §3
# [7] = system: Staphylococcus aureus 209PJC; experiment: as above; format: cell-based; details: Strain 11: Staphylococcus aureus 209PJC
# Description: as §2, §3
# [8] = system: Staphylococcus aureus No. 2 (MRSA); experiment: as above; format: cell-based; details: Strain 14: Staphylococcus aureus No. 2 (MRSA)
# Description: as §2, §3
# [9] = system: Helicobacter pylori No. 4; experiment: MIC, agar plating dilution, clinical segregation strain; format: cell-based; details: Strain 7: Helicobacter pylori No. 4
# Outline: (§4)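 Agar plate dilution per Japanese Chemotherapy Society standard method, with compounds from DMSO solutions mixed into Brain Heart Infusion agar containing 0.1% cyclodextrin. Plates were read after 3 days at 37 °C under microaerobic conditions.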
# [10] = system: Helicobacter pylori No. 1; experiment: as above; format: cell-based; details: Strain 4: Helicobacter pylori No. 1
# Outline: as §4
# [11] = system: Helicobacter pylori No. 28; experiment: as above; format: cell-based; details: Strain 10: Helicobacter pylori No. 28
# Outline: as §4
# [12] = system: Helicobacter pylori No. 19; experiment: as above; format: cell-based; details: Strain 8: Helicobacter pylori No. 19
# Outline: as §4
# [13] = system: Helicobacter pylori No. 2; experiment: as above; format: cell-based; details: Strain 5: Helicobacter pylori No. 2
# Outline: as §4
# [14] = system: Helicobacter pylori No. 3; experiment: as above; format: cell-based; details: Strain 6: Helicobacter pylori No. 3
# Outline: as §4
# [15] = system: Helicobacter pylori No. 20; experiment: as above; format: cell-based; details: Strain 9: Helicobacter pylori No. 20
# Outline: as §4
# [16] = system: Helicobacter pylori No. 4; experiment: MIC and MBC, liquid medium dilution; format: cell-based; details: Objected Strain 7: Helicobacter pylori No. 4
# Description: (§5) 2. Minimum Inhibitory Concentration (MIC) and Minimum Bacteria sterilizeory Concentration (MBC) against helicobacter pylon were measured in accordance with the liquid medium dilution. […] And […] of helicobacter pylon bacterial solution, which was cultured at 37° C. for three days and then diluted and prepared with the above mentioned liquid medium, was added to the mixtures to adjust the volume to 105 CFU/ml. […] After they were cultured by the same method as above mentioned, minimum concentration of the compounds which were not recognized the growth with the naked eyes were measured as the values of MBC.
# [17] = system: Helicobacter pylori No. 1; experiment: MIC and MBC, liquid medium dilution; format: cell-based; details: Objected Strain 4: Helicobacter pylori No. 1
# Description: as §5
# [18] = system: Helicobacter pylori ATCC 43629; experiment: MIC and MBC, liquid medium dilution; format: cell-based; details: Objected Strain 2: Helicobacter pylori ATCC 43629
# Description: as §5
# [19] = system: Helicobacter pylori No. 2; experiment: MIC and MBC, liquid medium dilution; format: cell-based; details: Objected Strain 5: Helicobacter pylori No. 2
# Description: as §5
# [20] = system: Helicobacter pylori ATCC 43504; experiment: MIC and MBC, liquid medium dilution; format: cell-based; details: Objected Strain 1: Helicobacter pylori ATCC 43504
# Description: as §5
# [21] = system: Helicobacter pylori No. 3; experiment: MIC and MBC, liquid medium dilution; format: cell-based; details: Objected Strain 6: Helicobacter pylori No. 3
# Description: as §5
# [22] = system: helicobacter pylori; experiment: MIC of benexart hydrochloride, for reference; format: cell-based; details: strain and medium not given
# Description: For reference, the value of MIC of benexart hydrochloride was >100 µg/ml.
smiles,measurement,setting,value
N=C(N)NCC1CCC(C(=O)Oc2ccc(CCC(=O)NO)cc2)CC1 (centres unmarked) [Formula (XIV)],ulceration restraining ratio,[1],88.7%
"Cc1ccc(COC(=O)c2ccc(-c3ccc(OC(=O)[C@H]4CC[C@H](CNC(=N)N)CC4)cc3)cc2)cc1.Cl [Example 14, trans-4-guanidinomethyl cyclohexane carboxylic acid [4-[4-(4-methylbenzyloxy carbonyl)phenyl]phenylester].hydrochloride]",MIC,[2],0.39 µg/mL
same,MIC,[3],0.39 µg/mL
same,MIC,[4],>25 µg/mL
same,MIC,[5],>25 µg/mL
same,MIC,[6]; Strain 13: Bacillus subtilis ATCC 6633,>25 µg/mL
same,MIC against bacillus subcillus ATCC 6633,[6]; standard method of Japanese Chemotherapy Academy,> 25 µg/mL
same,MIC,[7],>25 µg/mL
same,MIC,[8],>25 µg/mL
same,MIC,[9],0.20 µg/mL
same,MIC,[10],0.10 µg/mL
same,MIC,[11],0.39 µg/mL
same,MIC,[12],0.20 µg/mL
same,MIC,[13],0.39 µg/mL
same,MIC,[14],0.10 µg/mL
same,MIC,[15],0.39 µg/mL
same,MBC,[16],0.39 µg/mL
same,MIC,[16],0.39 µg/mL
same,MBC,[17],0.20 µg/mL
same,MIC,[17],0.20 µg/mL
same,MBC,[18],1.56 µg/mL
same,MIC,[18],0.39 µg/mL
same,MBC,[19],1.56 µg/mL
same,MIC,[19],0.39 µg/mL
same,MBC,[20],0.20 µg/mL
same,MIC,[20],0.20 µg/mL
same,MBC,[21],0.10 µg/mL
same,MIC,[21],0.10 µg/mL
Cl.NC(N)=NCC1CCC(C(=O)Oc2ccccc2C(=O)OCc2ccccc2)CC1 (centres unmarked) [benexart hydrochloride],MIC,[22],> 100 µg/mL

# From patent US6831190B1, “Guanidinomethyl cyclohexane carboxylic acid ester derivatives” (Teikoku Chemical Industries Co., Ltd., priority 1994, dated 2004)
